Measurements as given in article PMC10665234, “Nutritional Supplementation and Enhanced Antioxidant Function by Dietary Intake of Selenoneine and Other Selenium Compounds in Red Seabream Pagrus major” (Marine Biotechnology (New York, N.y.), 2023).

Key:
Assay type in all cases: in vivo, red seabream Pagrus major
red seabream = test: Oxidation-reduction potential (ORP) in white muscle; details: 2 weeks; 1 or 2 ppm in diet
Procedure: ORP was measured with ORP electrode (9300, Horiba, Kyoto, […]). The electrode was pierced into muscle and pressed gently until the potential stabilized for 60 s.

[1] = Total selenium concentrations in the tissues of red seabream after feeding selenium-supplemented dry pellet (fluorometric assay with 2,3-diamino-naphthalene)
Procedure: (§1) Red seabream fry (average body weight of 5.4 g) was obtained from private seed and seedling production company (Oita, Japan) and cultured for seven months up to average body weight of 250 g. Chemical composition of control diet was containing crude protein 50%; […]; Ca 2.3%; ash 16.0%; and phosphorus 1.5%. Each selenium-added diet was fed twice a day for 4 weeks in an amount of 1% of the average body weight. Body weight of fish in each tank was measured when fish were sampled and amount of diet was calculated according to the body weight of every sampling day. The added selenium concentrations in the diets were set in 0 ppm, 1 ppm, and 2 ppm selenium according to the previous study (Tohfuku et al. [2021]). After that, they were fed a commercial diet twice a day for 1 week. The test groups were the control group, the sodium selenite group (1 mg Se/kg feeding group and 2 mg Se/kg feeding group), the selenomethionine group (1 mg Se/kg feeding group and 2 mg Se/kg feeding group), and the selenoneine group (1 mg Se/kg feeding group and 2 mg Se/kg feeding group) were set. The number of fish raised was 15 from the start of rearing in each tank until the 2nd week, 10 from the 3rd to 4th week, and 5 in the 5th week. […] We reared red seabream by feeding of 1% dry pellet containing of sodium selenite, selenomethionine, or selenoneine of body weight twice a day for 4 weeks. After that, we replaced to 1% of commercial dry pellet of body weight twice a day for 1 week from the selenium supplementation. Average water temperature was 20.9 ℃ (19.0–23.9 ℃) and average dissolved oxygen was 7.41 mg/L. The body weight change of red seabream for 5 weeks is shown in Table S2.
(§2) Red seabream was anesthetized by adding 2 mL of anesthetic (1/100 volume of 2-methylquinoline dissolved in ethanol) to 1 L of seawater. A small amount of an anticoagulant (heparin sodium dissolved in physiological saline; 800 units/mL) was placed in a syringe in advance, and blood was collected from the caudal peduncle of each fish. The collected blood was centrifuged at 5000 rpm for 5 min (4 °C), divided into a plasma fraction and a precipitated fraction, and stored at − 50 °C. The precipitated fraction was used for analysis as the blood cell fraction.
Total selenium concentration was determined by fluorometric assay with 2,3-diamino-naphthalene, after digestion in 1.5 mL of nitric acid and perchloric acid (1:2 in volume) at 200–220 ℃ (Watkinson [1966]; Yamashita and Yamashita [2010]).

[2] = Selenoneine concentration in white muscle and blood cell by HPLC-ICP-MS (82Se); details: fish cultured for 4 weeks
Procedure: as §1, §2
Selenoneine was separated by chromatography using a Shodex GF-310 column (4.5 mm × 150 mm; Showa Denko, Tokyo, Japan) equilibrated with 100 mM ammonium formate buffer containing 0.1% (w/v) Igepal CA-630 (MP Biomedicals, CA, USA). The injection volume was at 10 μL. The mobile phase delivered at 0.5 mL/min isocratically. ^82Se was detected with high performance liquid chromatography inductively coupled plasma mass spectrometry (HPLC-ICP-MS; Agilent 1100 Series and Agilent 7500 Series, Agilent Technology) (Yamashita and Yamashita [2010]). During separation, selenoneine was eluted at a retention time of 200 s, and the selenium concentration was determined using selenoneine as a standard.

[3] = 5 weeks (4 weeks supplementation, then 1 week commercial diet), diet 1 mg Se/kg added
[4] = 5 weeks (4 weeks supplementation, then 1 week commercial diet), diet 2 mg Se/kg added

SMILES: C[Se]CC[C@H](N)C(=O)O [Selenomethionine, Seleno-L-methionine]
- ORP in white muscle compared to control (red seabream): reduced ORP

SMILES: O=[Se]([O-])[O-].[Na+].[Na+] [Sodium selenite, reference compound]
- Total selenium content, blood cell ([1]; 2 weeks, diet 1 mg Se/kg added): 2.44 ± 0.27 mg Se/kg
- Total selenium content, blood cell ([1]; 2 weeks, diet 2 mg Se/kg added): 2.49 ± 0.29 mg Se/kg
- Total selenium content, blood cell ([1]; 4 weeks, diet 1 mg Se/kg added): 3.11 ± 0.40 mg Se/kg
- Total selenium content, blood cell ([1]; 4 weeks, diet 2 mg Se/kg added): 2.86 ± 0.17 mg Se/kg
- Total selenium content, blood cell [1, 3]: 3.18 ± 0.76 mg Se/kg
- Total selenium content, blood cell [1, 4]: 3.13 ± 0.48 mg Se/kg
- Total selenium content, brain ([1]; 2 weeks, diet 1 mg Se/kg added): 0.49 ± 0.03 mg Se/kg
- Total selenium content, brain ([1]; 2 weeks, diet 2 mg Se/kg added): 0.50 ± 0.03 mg Se/kg
- Total selenium content, brain ([1]; 4 weeks, diet 1 mg Se/kg added): 0.54 ± 0.07 mg Se/kg
- Total selenium content, brain ([1]; 4 weeks, diet 2 mg Se/kg added): 0.45 ± 0.10 mg Se/kg
- Total selenium content, brain [1, 3]: 0.35 ± 0.09 mg Se/kg
- Total selenium content, brain [1, 4]: 0.33 ± 0.11 mg Se/kg
- Tissues in which total selenium was accumulated compared with the control group ([1]; diet 1 mg Se/kg and 2 mg Se/kg): white muscle, kidney, and hepatopancreas
- Total selenium content, heart ([1]; 2 weeks, diet 1 mg Se/kg added): 1.05 ± 0.20 mg Se/kg
- Total selenium content, heart ([1]; 2 weeks, diet 2 mg Se/kg added): 0.99 ± 0.10 mg Se/kg
- Total selenium content, heart ([1]; 4 weeks, diet 1 mg Se/kg added): 1.27 ± 0.11 mg Se/kg
- Total selenium content, heart ([1]; 4 weeks, diet 2 mg Se/kg added): 1.22 ± 0.08 mg Se/kg
- Total selenium content, heart [1, 3]: 1.20 ± 0.09 mg Se/kg
- Total selenium content, heart [1, 4]: 1.04 ± 0.07 mg Se/kg
- Total selenium content, hepatopancreas ([1]; 2 weeks, diet 1 mg Se/kg added): 1.12 ± 0.16 mg Se/kg
- Total selenium content, hepatopancreas ([1]; 2 weeks, diet 2 mg Se/kg added): 1.31 ± 0.15 mg Se/kg
- Total selenium content, hepatopancreas ([1]; 4 weeks, diet 1 mg Se/kg added): 1.40 ± 0.19 mg Se/kg
- Total selenium content, hepatopancreas ([1]; 4 weeks, diet 2 mg Se/kg added): 1.45 ± 0.13 mg Se/kg
- Total selenium content, hepatopancreas [1, 3]: 1.31 ± 0.23 mg Se/kg
- Total selenium content, hepatopancreas [1, 4]: 1.28 ± 0.18 mg Se/kg
- Total selenium content, kidney ([1]; 2 weeks, diet 1 mg Se/kg added): 2.46 ± 0.31 mg Se/kg
- Total selenium content, kidney ([1]; 2 weeks, diet 2 mg Se/kg added): 2.50 ± 0.19 mg Se/kg
- Total selenium content, kidney ([1]; 4 weeks, diet 1 mg Se/kg added): 3.07 ± 0.24 mg Se/kg
- Total selenium content, kidney ([1]; 4 weeks, diet 2 mg Se/kg added): 3.06 ± 0.34 mg Se/kg
- Total selenium content, kidney [1, 3]: 2.60 ± 0.32 mg Se/kg
- Total selenium content, kidney [1, 4]: 2.71 ± 0.39 mg Se/kg
- Total selenium content, spleen ([1]; 2 weeks, diet 1 mg Se/kg added): 2.58 ± 0.16 mg Se/kg
- Total selenium content, spleen ([1]; 2 weeks, diet 2 mg Se/kg added): 2.80 ± 0.25 mg Se/kg
- Total selenium content, spleen ([1]; 4 weeks, diet 1 mg Se/kg added): 3.09 ± 0.47 mg Se/kg
- Total selenium content, spleen ([1]; 4 weeks, diet 2 mg Se/kg added): 2.94 ± 0.22 mg Se/kg
- Total selenium content, spleen [1, 3]: 2.80 ± 0.28 mg Se/kg
- Total selenium content, spleen [1, 4]: 2.47 ± 0.35 mg Se/kg
- Total selenium content, white muscle ([1]; 2 weeks, diet 1 mg Se/kg added): 0.39 ± 0.02 mg Se/kg
- Total selenium content, white muscle ([1]; 2 weeks, diet 2 mg Se/kg added): 0.40 ± 0.02 mg Se/kg
- Total selenium content, white muscle ([1]; 4 weeks, diet 1 mg Se/kg added): 0.39 ± 0.01 mg Se/kg
- Total selenium content, white muscle ([1]; 4 weeks, diet 2 mg Se/kg added): 0.39 ± 0.03 mg Se/kg
- Total selenium content, white muscle [1, 3]: 0.38 ± 0.06 mg Se/kg
- Total selenium content, white muscle [1, 4]: 0.36 ± 0.05 mg Se/kg
- Selenoneine concentration, blood cell ([2]; diet 1 mg Se/kg added): 1.98 ± 0.39 mg Se/kg
- Selenoneine concentration, blood cell ([2]; diet 2 mg Se/kg added): 1.91 ± 0.43 mg Se/kg
- Selenoneine concentration, white muscle ([2]; diet 1 mg Se/kg added): 0.019 ± 0.002 mg Se/kg
- Selenoneine concentration, white muscle ([2]; diet 2 mg Se/kg added): 0.020 ± 0.003 mg Se/kg
- ORP in white muscle compared to control (red seabream): reduced ORP
